According to US8809631B2, “Screening method for selecting plants that show reduced wound-induced surface discolouration and plant and plant parts thus obtained” (Rijk Zwaan Zaadteelt en Zaadhandel B.V., priority 2007, dated 2014):
“Also recorded” adds a separate entry of the source.

Experiments:
[1] = treatment of formed dye with reducing agent after the wound response was completed; set-up: species or system lettuce; conditions: added after the wound response was completed
Protocol: As L-cysteine is known to react with o-quinones, which are PPO products, by converting them back into colourless diphenols, the effects of L-cysteine on the pink dye coming from lettuce leaf discs was determined. In parallel the effect of L-cysteine was determined on the melanin formation upon incubation with L-DOPA. Leaf discs were taken and incubated according to the procedures described above. After the wound response was completed, a concentration series of L-cysteine was added to the leaf disc and the change in colour was monitored.

[2] = system: lettuce leaf discs; assay: leaf disc pinking assay (discs between wetted filter papers, 5° C., 7 days); type: cell-based; conditions: for effect on pink discolouration (formation of the pink dye): applied during the reaction; for effect on pink discolouration (formation of the pink dye) / concentration at which the pink discolouration was completely inhibited: lettuce leaf discs; for effect on output signal of the screen (brown or pink discolouration of the wound surface): FIG. 1 legend; for concentration at which the pink discolouration was completely inhibited: applied during the assay, 5° C., 7 days
Protocol: One embodiment of this invention is based on the surprising finding that when discs from leaves, in particular lettuce leaves, are taken and incubated between wetted filter papers at 5° C., after approximately 4 days the formation of a pink dye at the edges of the leaf discs becomes apparent. Suitable filter paper is filter paper type 1450 CV, Ref no. 10 313 281 from Schleier & Schuell, Microscience GmbH, Dassel, Germany. Upon further incubation, the signal intensifies and after approximately one week the maximum intensity has been reached. The formation of the pink dye occurs specifically at wound surfaces.
A phenotypic assay was developed in which leaf discolouration of lettuce induced by wounding can readily be assessed. This approach allows young plant screening for discolouration. Leaf discs of 5 mm diameter were taken from young or mature plants and placed between wetted filter papers in a tray. The system was incubated at 5° C. for 7 days. During the incubation a pink dye developed at the wound site of the leaf disc which became clearly visible as a printed circle on the filter paper (FIG. 2).

[3] = system: field-grown lettuce plant; assay: L-cysteine treatment of leaf discs from field-grown lettuce showing pinking; conditions: 1 mM L-cysteine, approximately 30 minutes, room temperature
Protocol: This is typically observed when plants have been stressed, for example by conditions of severe water logging. The leaf was used to prepare leaf discs which were incubated immediately by 1 mM L-cysteine.

[4] = system: lettuce outer leaf midrib tissue discs; assay: midrib disc browning assay (wetted filter paper, 16° C.); type: cell-based; conditions: 10 mM L-cysteine, approximately 72 hours
Protocol: Lettuce plants were grown to maturity and parts of outer leaves were taken by cutting discs from the rib tissue. The discs were incubated on wetted filter paper at 16° C. After approximately 72 hours, the wound surface had turned brown.

[5] = system: lettuce PPO; assay: L-DOPA leaf disc assay (conversion of L-DOPA into melanin); type: cell-based
Protocol: In addition to assays which address wound-induced discolouration in a broad sense, the method according to this invention also allows to screen in a more specific manner for mutants which have a reduced PPO activity. A phenotypic assay which is indicative for PPO activity was developed by using leaf discs which were incubated in the presence of 1.5 mM L-DOPA. As a black discolouration became apparent it can be concluded that L-DOPA can readily be converted by the polyphenol oxidising system at the wound surface of lettuce leaves into a black pigment called melanine. L-DOPA is converted by PPO into the reactive L-DOPA-quinone which is converted non-enzymatically via dopachrome and indol quinone into the black melanin.

| Compound | effect on the pink dye already formed by lettuce leaf discs [1] | effect on pink discolouration (formation of the pink dye) [2] | effect on output signal of the screen (brown or pink discolouration of the wound surface) [2] | concentration at which the pink discolouration was completely inhibited [2] [%] | other results |
| --- | --- | --- | --- | --- | --- |
| O=C1O[C@H]([C@@H](O)CO)C(O)=C1O [ascorbic acid] | convert the pink dye into a colourless compound | – | – | – | – |
| C[C@H](N)C(=O)O [L-alanine] | – | did not show any effect | – | – | – |
| N[C@@H](CCC(=O)N[C@@H](CS)C(=O)NCC(=O)O)C(=O)O [glutathion] | convert the pink dye into a colourless compound | – | – | – | – |
| O=CC=Cc1ccccc1 [cinnamaldehyde] | – | formation of the pink dye was inhibited | completely inhibited | ≥ 0.01 | – |
| N[C@@H](CS)C(=O)O [L-cysteine] | converted into a colourless compound; also recorded: converting the pink dye back into a colourless compound | strongly suppressed the formation of the pink dye | completely inhibited | ≥ 0.001 | effect on pink discolouration of field-grown lettuce leaf [3]: the pink discolouration is also eliminated; also recorded: the pink discolouration disappeared; effect on browning response of wound surface [4]: completely be inhibited; also recorded: the browning response was inhibited; effect on black discolouration (melanin formation from L-DOPA) ([5]; applied simultaneously with L-DOPA (1 mM L-cysteine elsewhere in the source)): completely inhibited; also recorded: can be inhibited; concentration at which L-DOPA discolouration was completely inhibited ([5]; applied simultaneously with L-DOPA, lettuce leaf discs): ≥ 1 mM; effect on black melanin already formed in the L-DOPA assay [1]: not affected |
| CC(C)C[C@H](N)C(=O)O [L-leucine] | – | did not show any effect | – | – | – |
